In the supplement of paper PMC4862054:
Several values for one entry are separate records, joined by “and”; a condition that tells them apart may be missing. Equal values may be shown once.

Legend:
CAL-120 [1] = settings: 72 h
Outline: (§1)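 Breast cancer cell lines in 20 µl suspension were seeded onto 384-well plates pre-loaded with compound dissolved in 5 µl medium, then incubated 72 h. For viability, 2.5 µl CellTiter-Blue was added for 2 h at 37 °C and fluorescence read at 560/590 nm. Each plate was normalised to vehicle and a positive kill control and checked by Z'-factor. EC50 comes from the fitted percent-inhibition dose-response curve, censored at the highest concentration; rows with zero drug sensitivity score were dropped.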

MDA-MB-231 [2] = settings: 72 h
Outline: as §1

SK-BR-3 [3] = settings: 72 h
Outline: as §1

HCC1937 [4] = assay: drug sensitivity score (DSS), CellTiter-Glo (DSS (AUC-based score)); higher = stronger drug effect (viability inhibition or cytotoxicity); extreme values may be limits of the assay; settings: incubation time: 72 h
Outline: (§2)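 After 72 h of incubation in 384-well plates with compound at 5 concentrations (10-fold steps, 10,000-fold range set per compound), breast cancer cell lines seeded in 20 µl suspension were read first for CellTox Green fluorescence at 485/520 nm. CellTiter-Glo luminescence was measured next, after 10 min at room temperature. Normalisation on each plate used 0.1 % DMSO and a positive kill control, and the drug sensitivity score was computed from the area under the fitted dose-response curve.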

BT-474 [5] = assay: as above; settings: incubation time: 72 h
Outline: as §2

CAL-148 [6] = assay: as above; settings: incubation time: 72 h
Outline: as §2

HCC1143 [7] = assay: as above; settings: incubation time: 72 h
Outline: as §2

HCC1599 [8] = assay: as above; settings: incubation time: 72 h
Outline: as §2

MCF-10A = assay: as above; settings: incubation time: 72 h
Outline: as §2

HCC1937 [9] = assay: drug sensitivity score (DSS), CellTiter-Blue viability (DSS (AUC-based score)); higher = stronger viability inhibition; extreme values may be limits of the assay; settings: incubation time: 72 h
Protocol: (§3)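 DSRT with the CellTiter-Blue (resazurin reduction) viability readout, fluorescence 560/590 nm, 72 h incubation. Plates were normalised to DMSO and benzethonium chloride controls. DSS is computed from the area under the fitted dose-response curve (5 or 9 concentrations).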

BT-474 [10] = assay: as above; settings: incubation time: 72 h
Protocol: as §3

MDA-MB-436 = assay: as above; settings: incubation time: 72 h
Protocol: as §3

CAL-148 [11] = assay: as above; settings: incubation time: 72 h
Protocol: as §3

CAL-85-1 = assay: as above; settings: incubation time: 72 h
Protocol: as §3

CAL-120 [12] = assay: as above; settings: incubation time: 72 h
Protocol: as §3

HCC1143 [13] = assay: as above; settings: incubation time: 72 h
Protocol: as §3

HCC1599 [14] = assay: as above; settings: incubation time: 72 h
Protocol: as §3

MDA-MB-453 = assay: as above; settings: incubation time: 72 h
Protocol: as §3

Hs578T = assay: as above; settings: incubation time: 72 h
Protocol: as §3

MDA-MB-231 [15] = assay: as above; settings: incubation time: 72 h
Protocol: as §3

HDQ-P1 = assay: as above; settings: incubation time: 72 h
Protocol: as §3

CAL-51 = assay: as above; settings: incubation time: 72 h
Protocol: as §3

SK-BR-3 [16] = assay: as above; settings: incubation time: 72 h
Protocol: as §3

BT-549 = assay: as above; settings: incubation time: 72 h
Protocol: as §3

MFM-223 = assay: as above; settings: incubation time: 72 h
Protocol: as §3

MDA-MB-468 = assay: as above; settings: incubation time: 72 h
Protocol: as §3

DU-4475 = assay: as above; settings: incubation time: 72 h
Protocol: as §3

Structure (SMILES)	EC50, CellTiter-Blue viability (CAL-120 [1]) [nM]	EC50, CellTiter-Blue viability (MDA-MB-231 [2]) [nM]	EC50, CellTiter-Blue viability (SK-BR-3 [3]) [nM]	drug sensitivity score (HCC1937 [4])	drug sensitivity score (BT-474 [5])	drug sensitivity score (CAL-148 [6])	drug sensitivity score (HCC1143 [7])	drug sensitivity score (HCC1599 [8])	drug sensitivity score (MCF-10A)	drug sensitivity score (HCC1937 [9])	drug sensitivity score (BT-474 [10])	drug sensitivity score (MDA-MB-436)	drug sensitivity score (CAL-148 [11])	drug sensitivity score (CAL-85-1)	drug sensitivity score (CAL-120 [12])	drug sensitivity score (HCC1143 [13])	drug sensitivity score (HCC1599 [14])	drug sensitivity score (MDA-MB-453)	drug sensitivity score (Hs578T)	drug sensitivity score (MDA-MB-231 [15])	drug sensitivity score (HDQ-P1)	drug sensitivity score (CAL-51)	drug sensitivity score (SK-BR-3 [16])	drug sensitivity score (BT-549)	drug sensitivity score (MFM-223)	drug sensitivity score (MDA-MB-468)	drug sensitivity score (DU-4475)
COc1cc2c(cc1O)CC[C@@H]1[C@@H]2CC[C@]2(C)[C@@H](O)CC[C@@H]12 [2-methoxyestradiol]	1510	432	5800	0	5.9	2.17	3.67	2.6	0	9.5	6.94	7.65	0	5.36	8.63	4.05	0	9.7	9.08	11.2	5.38	5.78	2.73	10.5	0	2.79	6.57
Cc1sc2c(c1C)C(c1ccc(Cl)cc1)=N[C@@H](CC(=O)OC(C)(C)C)c1nnc(C)n1-2 [(+)JQ1]	114	265	337	3.6	7.3	6.21	5.11	0	9.62	6.88	0	0	9.78	10.5	11.2	6.54	7.63	17.2	11	12.9	0	3.04	8.66	10.7	10.1	5.95	17.1
CC(=O)O[C@@]12CO[C@@H]1C[C@H](O)[C@@]1(C)C(=O)[C@H](O)C3=C(C)[C@@H](OC(=O)[C@H](O)[C@@H](NC(=O)OC(C)(C)C)c4ccccc4)C[C@@](O)([C@@H](OC(=O)c4ccccc4)[C@H]21)C3(C)C [Docetaxel]	2.27	2.39	1.9	10.6	15.6	20.5	23.7	16.7	20.4	27.2 and 24.9	21.1 and 19.5	18.7 and 19.2	26.1 and 28.4	22.5 and 22.9	24 and 24.9	19.6 and 25.2	0	24.2 and 24.9	31.2 and 30.6	24.4 and 25.8	17.8 and 22.5	22.4 and 25.2	28.9 and 29.4	27.3 and 29.3	16.2 and 17.8	19.4 and 20.5	26.1 and 28.1
C[C@]1(O)C[C@@H](c2nc(-c3ccc4ccc(-c5ccccc5)nc4c3)c3c(N)nccn32)C1 [OSI-906]			105							4.24	1.46	0	0	1.93	0	2.39	3.98	0	2	0	6.19	1.03	6.92	3.58	0	0	0
CC(C)(C)c1cnc(CSc2cnc(NC(=O)C3CCNCC3)s2)o1 [SNS-032]	160	133	123	17.2	17.8	10.3	24.3	18.5	18.6	20.4	15.2	15	19.6	22.1	18.9	17.4	18	20	23.1	21.1	21.3	13.8	22	17.6	17.5	16.5	20.1
Nc1nc2[nH]cnc2c(=S)[nH]1 [Thioguanine]	1140	212	9940	8.45	12	1.29	0.8	5.01	0	3.55	0	4.56	2.39	3.32	7.28	0	0	0	2.55	8.63	0	0.794	0.902	0.924	0	7.48	0
